Source: a melting point compilation (Tetko et al.)

Row | Structure (SMILES) | melting point
1 | Cc1cc(Cl)cc(Cl)c1Cl | 45.5 °C
2 | CC(C)NC(C)C | -61 °C
3 | CC12CCC(C(CCC3C(=O)C4(C)CCC3C4(C)C)C1=O)C2(C)C (stereo unspecified) | 210 °C
4 | Cc1ccc(C)c2c1-c1nc3ccccc3nc1-2 | 195 °C
5 | Cc1ccc(S(=O)(=O)OCCCCCCOS(=O)(=O)c2ccc(C)cc2)cc1 | 70.5 to 73 °C
6 | O=C(O)c1cscc1Sc1ccc(Cl)cc1 | 195 to 198 °C
7 | CC(C)(C)c1cc([N+](=O)[O-])c(O)c([N+](=O)[O-])c1 | 95 °C
8 | O=C(O)c1ccc(-n2nc(C(=O)c3cccs3)s/c2=N\C(=O)c2ccccc2)cc1 | 219 °C
9 | O=C(Cl)c1ccc(Cl)c([N+](=O)[O-])c1 | 53.5 °C
10 | CCCCCCCCN1CCCC1=O | -25 °C
11 | O=C(O)C(F)(F)C(F)(F)C(F)(F)C(=O)O | 94.5 °C
12 | Nc1cccc2c(O)cccc12 | 189 °C
13 | CC(C)(C)c1ccc(-c2ccc(Br)cc2)cc1 | 142 °C
14 | FC(F)(F)c1ccc(-n2ccnc2)cc1 | 71 to 73 °C
15 | FC(F)(F)c1n[nH]c(/N=C/c2ccc(Cl)cc2)n1 | 233 °C
16 | Cc1cc(CO)c(-c2ccccc2)o1 | 56 to 59 °C
17 | CC(=O)n1cc(C)c2ccccc21 | 65 °C
18 | COc1ccc(C2Nn3c(nnc3-c3cccnc3)S2)cc1 (stereo unspecified) | 219 °C
19 | Cc1cc(O)ccc1[N+](=O)[O-] | 128 °C
20 | Fc1ccc(Br)nc1 | 28.5 °C
21 | CCOC(=O)C1=C(C)NC(=O)NC1c1ccco1 (stereo unspecified) | 206 °C
22 | CCCCCCCCCCCCCCCc1cccc(O)c1 | 53.5 °C

Row | Structure (SMILES) | melting point
23 | COc1cc(Cl)ccc1[N+](=O)[O-] | 71 °C
24 | COc1cc2c(cc1O)C(Cc1ccc(OC)c(OC)c1)N(C)CC2 (stereo unspecified) | 127 °C
25 | Brc1cccc(Br)n1 | 119 °C
26 | C[C@]12CCC(=O)C(Br)[C@H]1CC[C@@H]1[C@@H]2CC[C@]2(C)C(O)CC[C@@H]12 (stereo partly specified) | 143 °C
27 | CC(C)C1CCCCC1=O (stereo unspecified) | 72.5 °C
28 | CCCCNC(=O)C(c1cc2ccccc2c2ccccc12)N(Cc1ccco1)C(=O)Cc1ccccc1 (stereo unspecified) | 185 °C
29 | CCOC(=O)c1c(SC)nn(C(N)=S)c1N | 149 °C
30 | CCOC(=O)Nc1ccc2cc3ccc4c(c3nc2c1)COC(=O)N4 | 235 °C
31 | COc1cc2c(cc1OC)C(CCO)NCC2 (stereo unspecified) | 103 to 107 °C
32 | C=CCC1(c2ccccc2)C(=O)NC(=O)NC1=O | 156 °C
33 | COC(=O)C1=C(C)NC(C)=C(C(=O)OC)C1c1ccc(OC)cc1 | 173 to 177 °C
34 | CCOC(=O)c1c(N)sc2c1CCCCC2 | 89 to 90 °C
35 | CC(=O)C(C)=NO | 76.8 °C
36 | OCc1ccc(-n2cccc2)cc1 | 102 to 105 °C
37 | CC(O)C(NC(=O)OCc1ccccc1)C(=O)O (stereo unspecified) | 103 °C
38 | N#Cc1c[nH]cc1-c1cccc(Cl)c1Cl | 150 °C
39 | Nc1ccccc1C(=O)c1ccccc1C(=O)O | 196 to 200 °C
40 | COC(=O)c1ccc(O)c(OC)c1 | 64 °C
41 | CC(=O)CS(=O)(=O)c1ccc(Cl)cc1 | 89 to 91 °C
42 | Nc1nc2ccccc2[nH]1 | 230 °C
43 | N#Cc1cc(I)c(O)c([N+](=O)[O-])c1 | 138 °C
44 | Cc1cc(Br)cnc1N | 92 to 94 °C

Row | Structure (SMILES) | melting point
45 | Clc1cnc(Cl)c(Cl)c1 | 49 °C
46 | C#Cc1ccc(Br)cc1 | 66 °C
47 | COC(=O)CCc1ccc(OC)c(O)c1 | 78 °C
48 | O=C(C=Cc1ccccc1)c1ccc(O)cc1 | 174 to 178 °C
49 | O=c1[nH]sc2ccccc12 | 156 °C
50 | Oc1cc(C(F)(F)F)nc2c(Br)cccc12 | 136 to 137 °C
51 | CCCCNC(=O)C(C(F)(F)F)C(F)(F)F | 94 °C
52 | COC(=O)c1cc2cc(Br)ccc2s1 | 110 to 111 °C
53 | CC(=O)Nc1nn(C(C)=O)c2ncccc12 | 217 to 219 °C
54 | O=C(O)C=Cc1cccc(C(F)(F)F)c1 | 136 °C
55 | CC(=O)OCC1=CC2OC(=O)C3=COC(OC4OC(CO)C(O)C(O)C4O)C1C32 (stereo unspecified) | 132 °C
56 | C#CCn1ccc2cc(C(=O)OC)ccc21 | 94 to 96 °C
57 | N#CC1(O)CN2CCC1CC2 (stereo unspecified) | 156 to 159 °C
58 | OCC1OC(Oc2c[nH]c3ccc(Br)c(Cl)c23)C(O)C(O)C1O (stereo unspecified) | 249 to 251 °C
59 | O=S(=O)(Cl)c1cc(Cl)cc(Cl)c1 | 53 to 57 °C
60 | Nc1c(Br)cc(Br)cc1C=O | 136 to 139 °C
61 | CC12CCC3C(CCC4CC(=O)CCC43C)C1CC(=O)C2 (stereo unspecified) | 163 °C
62 | CCCCCCCCC(=O)NCc1ccc(O)c(OC)c1 | 57 °C
63 | CC(=O)Nc1ccsc1C(=O)O | 200 to 202 °C
64 | CCC(C)CCCCO (stereo unspecified) | -104 °C
65 | CC(C)(C)OC(=O)NC1CCNC1 (stereo unspecified) | 67 °C
66 | COc1ccc2c(c1)CCC(=Cc1ccccc1)C2=O | 75 to 75.5 °C

Row | Structure (SMILES) | melting point
67 | COC(=O)c1ccccc1OC1OC(COC2OCC(O)C(O)C2O)C(O)C(O)C1O (stereo unspecified) | 180 °C
68 | O=C1c2ccccc2C(=O)N1CCOCCCl | 72 to 73 °C
69 | CCCCCCCCCCCCCCCCCCCCCC(=O)OC | 54 °C
70 | O=S(=O)(Cl)c1csc2ccccc12 | 86 to 88 °C
71 | Fc1c(F)c(Br)c(F)c(F)c1Br | 78 to 81 °C
72 | Cc1c(C)n2c(CBr)c(C)c(=O)n2c1=O | 152 °C
73 | Cc1ccc(N2CCNCC2)cc1C | 63 °C
74 | CCC(=O)c1cc(F)cc(F)c1 | 26 °C
75 | O=C(C=Cc1ccccc1)c1ccccc1O | 90 °C
76 | C=C1C(=O)OC2C1CCC(C)C1(O)C=CC(=O)C21C (stereo unspecified) | 164 °C
77 | O=Cc1cc(Cl)cc(Cl)c1[N+](=O)[O-] | 91 °C
78 | COc1cc2c(cc1OC)C(c1ccc(O)cc1)N(C(C)=O)CC2 (stereo unspecified) | 145 to 147 °C
79 | Cc1onc(-c2ccccc2)c1C(=O)O | 192 to 193 °C
80 | CCOP(=O)(Cc1ccc(N)cc1)OCC | 93 °C
81 | BrCc1sc(-c2ccccc2)nc1-c1ccccc1 | 112 to 114 °C
82 | C[C@@]12CCC[C@@]1(O)[C@@H]1CC=C3CC(O)CC[C@]3(C)[C@H]1CC2 (stereo partly specified) | 201 to 203 °C
83 | COC(=O)c1cc(C(C)=O)ccc1O | 60 to 61 °C
84 | O=C(O)c1ccccc1OP(=O)(O)O | 168 °C
85 | COc1ccc(Oc2ccc(C(F)(F)F)cc2[N+](=O)[O-])cc1 | 45 to 47 °C
86 | CCC(C)(S(=O)(=O)CC)S(=O)(=O)CC | 76 °C
87 | Cc1nc2ccccc2n1CCc1n[nH]c(=S)o1 | 209 °C
88 | O=C(NCCCCO)OCC1c2ccccc2-c2ccccc21 | 115 to 117 °C

Row | Structure (SMILES) | melting point
89 | Cn1c(/C(C#N)=C/c2cccc(O)c2)nc2ccccc21 | 240 °C
90 | CO[C@](C(=O)O)(c1ccccc1)C(F)(F)F | 44 °C
91 | C(=C(c1ccccc1)c1ccccc1)c1ccccc1 | 72.5 °C
92 | N#C/C(=N/Nc1cccc(C(F)(F)F)c1)C(=O)c1cccs1 | 173 °C
93 | COc1cc(C(O)C(=O)O)ccc1O (stereo unspecified) | 131 to 134 °C
94 | CC1CC(=O)OC(=O)C1 | 40 to 45 °C
95 | COc1cc(N)c(C#N)cc1OC | 99 °C
96 | COC(=O)C1C2(C)C=CC(O2)C1(OC)OC (stereo unspecified) | 60 to 62 °C
97 | O=C(C1=NOC2C(=O)N(c3ccc(O)cc3)C(=O)C12)c1ccccc1 (stereo unspecified) | 99 °C
98 | CC1=Nc2ccccc2Sc2c1c(=O)n(-c1ccccc1)c1ccccc21 | 231 °C
99 | CN(C)c1ccc(C=C2C(=O)OC(C)(C)OC2=O)cc1 | 162 °C
100 | CCC(CCC(C)C1CCC2C3CC=C4CC(O)CCC4(C)C3CCC12C)C(C)C (stereo unspecified) | 147 °C
101 | CC(O)C(N)CO (stereo unspecified) | 54 to 57 °C
102 | S=C=NCc1ccc(Cl)cc1Cl | 26 to 28 °C
103 | C=C1CC2C3CCC4=CC(=O)C=CC4(C)C3C(O)CC2(C)C1(O)C(=O)CO (stereo unspecified) | 234 °C
104 | Cc1cc(C)c2c(-c3ccccc3)nn(-c3ccccc3)c2n1 | 114 °C
105 | Cc1c(CC(=O)O)sc2ccc(Cl)cc12 | 177 to 178 °C
106 | OC(Cc1ccccc1)c1ccccc1 (stereo unspecified) | 67 °C
107 | N#CCCCOc1ccccc1 | 45.5 °C
108 | O=C(Nc1cccc([N+](=O)[O-])c1)Nc1cccc([N+](=O)[O-])c1 | 234 °C
109 | CCN(CC)CC#CCOC(=O)C(O)(c1ccccc1)C1CCCCC1 (stereo unspecified) | 130 °C
110 | Clc1ccc2ccccc2c1 | 61 °C

Row | Structure (SMILES) | melting point
111 | CCCOC1CCC2C3CCC4=CC(=O)CCC4(C)C3CCC12C (stereo unspecified) | 117 to 119 °C
112 | O=c1cc[nH]c2c1cnn2-c1ccccc1 | 166 to 168 °C
113 | CC(C)(C#N)OC1OC(CO)C(O)C(O)C1O (stereo unspecified) | 145 °C
114 | CNCC(O)c1cccc(NS(C)(=O)=O)c1 (stereo unspecified) | 159 °C
115 | CCCCCCCCCCCCCCCCCCCCCO | 68 to 71 °C
116 | O=C(CCCCl)c1ccc(F)cc1 | 6 °C
117 | FC(Cl)C(F)(F)C(F)(F)Cl (stereo unspecified) | -97 °C
118 | CN(N)C(=O)c1cc(Cl)ccc1N | 78 to 81 °C
119 | Oc1ccc(F)c(F)c1F | 32 °C
120 | Cc1ccc(S(=O)(=O)c2coc(S(N)(=O)=O)c2)cc1 | 185 °C
121 | Cc1c(C)c(C)c(N)c(C)c1C | 152 °C
122 | COc1cc(C(=O)NCCCCCC(=O)O)cc(OC)c1OC | 121 °C
123 | O=c1[nH]nc(-c2ccccc2)c2ccccc12 | 240 °C
124 | N#CCCCC#N | -29 °C
125 | CC(C)(C)c1cc(N=Nc2cc(C(C)(C)C)cc(C(C)(C)C)c2O)c(O)c(C(C)(C)C)c1 | 246 to 247 °C
126 | O=C(O)COc1ccc(OCC(=O)O)cc1 | 248 to 251 °C
127 | Nc1ccc(F)cc1N | 86 to 88 °C
128 | COc1ccc(C(=O)c2ccccc2F)cc1[N+](=O)[O-] | 133 to 139 °C
129 | N#Cc1cc(S(=O)(=O)Cl)ccc1F | 69 °C
130 | O=C(O)C1CCCC1C(=O)O (stereo unspecified) | 160 °C
131 | CCCCC(C#N)(Cn1cncn1)c1ccc(Cl)cc1 (stereo unspecified) | 70.9 °C
